In patent publication US20210251991A1, “SUBSTITUTED 2,2'-BIPYRIMIDINYL COMPOUNDS, ANALOGUES THEREOF, AND METHODS USING SAME” (priority 2018, published 2021):

tested on: HBsAg in HepG2.2.15 cells; experiment: HBsAg assay: inhibition of HBsAg in HepG2.2.15 cells (chemiluminescence immunoassay of supernatant); assay type: cell-based, hepatitis B virus; details: Hepatitis B virus, HepG2.2.15, 144 h, read-out: sAg EC50, HepG2.2.15 cells, supernatant collected at day 6 after exposure, HBsAg CLIA
Procedure: Inhibition of HBsAg was determined in HepG2.2.15 cells. Cells were maintained in culture medium containing 10% fetal calf serum, […], Glutamine, penicillin/streptomycin. Cells were seeded in 96-well collagen-coated plate at a density of 30,000 cells/well. Serially diluted compounds were added to cells next day at the final DMSO concentration of 0.5%. Cells were incubated with compounds for 2-3 days, after which medium was removed. Fresh medium containing compounds was added to cells for additional 3-4 days. At day 6 after exposure of compounds, supernatant was collected, the HBsAg immunoassay (microplate-based chemiluminescence immunoassay kits, CLIA, Autobio Diagnosics Co., Zhengzhou, China, Catalog #CL0310-2) was used to determine the level of HBsAg according to manufactory instruction. Dose-response curves were generated and the EC50 value (effective concentrations that achieved 50% inhibitory effect) were determined using XLfit software. In addition, cells were seeded at a density of 5,000 cells/well for determination of cell viability in the presence and absence of compounds by using CellTiter-Glo reagent (Promega).

Point of comparison: `CCC1c2cc(F)c(OC)cc2CN1c1ccnc(C(=O)O)n1` (stereo not drawn) [Example 96, 4-(1-Ethyl-6-fluoro-5-methoxyisoindolin-2-yl)pyrimidine-2-carboxylic Acid], EC50 1200 nM. Against it:
- c1cnc(-c2nccc(N3C4CCC3c3ccccc34)n2)nc1 [Example 82, 9-([2,2′-Bipyrimidin]-4-yl)-1,2,3,4-tetrahydro-1,4-epiminonaphthalene] — 7.5-fold higher, 9000 nM
- CCC1c2cc(F)c(OC)cc2CCN1c1cnc2c(=O)n(C)cnc2c1 (stereo not drawn) [Example 125, 7-(1-Ethyl-7-fluoro-6-methoxy-3,4-dihydroisoquinolin-2(1H)-yl)-3-methylpyrido[3,2-d]pyrimidin-4(3H)-one] — within 1.5-fold, 1600 nM
- CCC1c2cc(OC)c(OC)cc2CN1c1cnc(C(=O)O)nc1 (stereo not drawn) [Example 97, 5-(1-Ethyl-5,6-dimethoxyisoindolin-2-yl)pyrimidine-2-carboxylic Acid] — 4.2-fold higher, 5000 nM
- CCC1c2cc(OC)c(OC)cc2CN1c1nc(-c2ncccn2)nc2c1CCC2 (stereo not drawn) [Example 94, 4-(1-Ethyl-5,6-dimethoxy-isoindolin-2-yl)-2-pyrimidin-2-yl-6,7-dihydro-5H-cyclopenta[d]pyrimidine] — 3.4-fold lower, 350 nM
- c1cnc(-c2ncc(N3CC4CC3c3ccccc34)cn2)nc1 (stereo not drawn) [Example 21, 2-([2,2′-Bipyrimidin]-5-yl)-1,2,3,4-tetrahydro-1,4-methanoisoquinoline] — 22-fold higher, 27000 nM
- COc1cc2c(cc1OC)C1(CCC1)N(c1cnc(-c3ncccn3)nc1)CC2 [Example 18, 2′-([2,2′-Bipyrimidin]-5-yl)-6′,7′-dimethoxy-3′,4′-dihydro-2′H-spiro[cyclobutane-1,1′-isoquinoline]] — 42-fold higher, 50000 nM
- CCC1c2ccc(OC)c(OC)c2CCN1c1cnc(-c2ncccn2)nc1 (stereo not drawn) [Example 28, 2-([2,2′-Bipyrimidin]-5-yl)-1-ethyl-5,6-dimethoxy-1,2,3,4 Tetrahydroisoquinoline] — 6.7-fold lower, 180 nM
- CCC1c2cc(OC)c(OC)cc2CN1c1nc(-c2ncccn2)ncc1C1CC1 (stereo not drawn) [Example 61, 2-(5-Cyclopropyl-[2,2′-bipyrimidin]-4-yl)-1-ethyl-5,6-dimethoxyisoindoline] — 86-fold lower, 14 nM
- COC(=O)CC1c2cc(OC)c(OC)cc2CCN1c1cnc(-c2ncccn2)nc1 (stereo not drawn) [Example 26, Methyl 2-(2-([2,2′-bipyrimidin]-5-yl)-6,7-dimethoxy-1,2,3,4-tetrahydroisoquinolin-1-yl) acetate] — the same, 1200 nM
- CCC1c2cc(F)c(F)cc2CCN1c1cnc(-c2ncccn2)nc1 (stereo not drawn) [Example 25, 2-([2,2′-Bipyrimidin]-5-yl)-1-ethyl-6,7-difluoro-1,2,3,4-tetrahydroisoquinoline] — 14-fold lower, 85 nM
- c1cnc(-c2nccc(N3CC4CCC3c3ccccc34)n2)nc1 (stereo not drawn) [Example 79, 10-([2,2′-Bipyrimidin]-4-yl)-1,2,3,4-tetrahydro-1,4-(epiminomethano)naphthalene] — 5-fold higher, 6000 nM
- CCC1c2cc(F)c(OC)cc2CN1c1cnc(C(=O)NS(C)(=O)=O)nc1 (single isomer, unassigned) [Example 102, 5-(1-Ethyl-6-fluoro-5-methoxyisoindolin-2-yl)-N-(methylsulfonyl)pyrimidine-2-carboxamide] — 1.9-fold lower, 620 nM
- COc1cc2c(cc1OC)C1CCC2N1c1cnc(-c2ncccn2)nc1 [Example 84, 9-([2,2′-Bipyrimidin]-5-yl)-6,7-dimethoxy-1,2,3,4-tetrahydro-1,4-epiminonaphthalene] — 3.3-fold higher, 4000 nM
- CC1c2ccc(F)c(F)c2CCN1c1cnc(-c2ncccn2)nc1 (stereo not drawn) [Example 24, 2-([2,2′-Bipyrimidin]-5-yl)-5,6-difluoro-1-methyl-1,2,3,4-tetrahydroisoquinoline] — 3.5-fold lower, 340 nM
- CCC1c2cc(F)c(F)cc2CN1c1ccnc(C(N)=O)n1 (stereo not drawn) [Example 121, 4-(1-Ethyl-5,6-difluoroisoindolin-2-yl)pyrimidine-2-carboxamide] — 15-fold higher, 18000 nM
- CCC1c2cc(F)c(F)cc2CN1c1ccnc(C(=O)O)n1 (stereo not drawn) [Example 95, 4-(1-Ethyl-5,6-difluoroisoindolin-2-yl)pyrimidine-2-carboxylic Acid] — 1.7-fold higher, 2000 nM
- CCC1c2cc(F)c(F)cc2CN1c1nc(-c2ncccn2)ncc1Cl (stereo not drawn) [Example 53, 2-(5-Chloro-[2,2′-bipyrimidin]-4-yl)-1-ethyl-5,6-difluoroisoindoline] — 40-fold lower, 30 nM
- CCC1c2cc(F)c(OC)cc2CN1c1ccnc(-c2ncccn2)n1 (stereo not drawn) [Example 63, 2-([2,2′-Bipyrimidin]-4-yl)-1-ethyl-6-fluoro-5-methoxyisoindoline] — 57-fold lower, 21 nM
- CCC1c2cc(F)c(OC)cc2CN1c1cnc(C(=O)O)nc1 (stereo not drawn) [Example 98, 5-(1-Ethyl-6-fluoro-5-methoxyisoindolin-2-yl)pyrimidine-2-carboxylic Acid] — 5-fold lower, 240 nM
- CCC1c2cc(OC)c(OC)cc2CN1c1nc(-c2ncccn2)ncc1Cl (stereo not drawn) [Example 60, 2-(5-Chloro-[2,2′-bipyrimidin]-4-yl)-1-ethyl-5,6-dimethoxyisoindoline] — 400-fold lower, 3 nM
- CCC1c2cc(F)c(OC)cc2CN1c1cnc(C(=O)NS(C)(=O)=O)nc1 (stereo not drawn) [Example 101, 5-(1-Ethyl-6-fluoro-5-methoxyisoindolin-2-yl)-N-(methylsulfonyl)pyrimidine-2-carboxamide] — 1.8-fold lower, 650 nM
- CCC1c2c(OC)ccc(F)c2CCN1c1cnc(-c2ncccn2)nc1 (stereo not drawn) [Example 35, 1-Ethyl-5-fluoro-8-methoxy-2-(2-pyrimidin-2-ylpyrimidin-5-yl)-3,4-dihydro-1H-isoquinoline] — 1.9-fold lower, 620 nM
- CCC1c2cc(F)c(F)cc2CN1c1nc(-c2ncccn2)ncc1C (stereo not drawn) [Example 52, 1-Ethyl-5,6-difluoro-2-(5-methyl-[2,2′-bipyrimidin]-4-yl)isoindoline] — 28-fold lower, 43 nM
- CC1c2ccccc2CCN1c1ccnc(-c2ncccn2)n1 (stereo not drawn) [Example 7, 2-([2,2′-Bipyrimidin]-4-yl)-1-methyl-1,2,3,4-tetrahydroisoquinoline] — 1.6-fold higher, 1900 nM
- FC(F)(F)c1cccc2c1CN(c1cnc(-c3ncccn3)nc1)C2 [Example 14, 2-([2,2′-Bipyrimidin]-5-yl)-4-(trifluoromethyl)isoindoline] — 21-fold higher, 25000 nM
- COc1cc2c(cc1OC)C(CC(=O)O)N(c1cnc(-c3ncccn3)nc1)CC2 (stereo not drawn) [Example 27, 2-(2-([2,2′-Bipyrimidin]-5-yl)-6,7-dimethoxy-1,2,3,4-tetrahydroisoquinolin-1-yl) acetic Acid] — 23-fold higher, 28000 nM
- Fc1ccc2c(c1F)CCN(c1ccnc(-c3ncccn3)n1)C2 [Example 4, 2-([2,2′-Bipyrimidin]-4-yl)-5,6-difluoro-1,2,3,4-tetrahydroisoquinoline] — within 1.5-fold, 900 nM
- Fc1ccc2c(c1F)CCN(c1cnc(-c3ncccn3)nc1)C2 [Example 3, 2-([2,2′-Bipyrimidin]-5-yl)-5,6-difluoro-1,2,3,4-tetrahydroisoquinoline] — 2.8-fold higher, 3400 nM

same assay, conditions: read-out: sAg EC50; HepG2.2.15 cells, supernatant collected at day 6 after exposure, HBsAg CLIA

Point of comparison: `CCC1c2cc(F)c(OC)cc2CN1c1ccnc(-c2ncccn2)n1` (single isomer, unassigned) [Example 64, 2-([2,2′-Bipyrimidin]-4-yl)-1-ethyl-6-fluoro-5-methoxyisoindoline], EC50 12 nM. Against it:
- CCC1c2cc(OC)c(F)cc2CN1c1ccnc(-c2ncccn2)n1 (single isomer, unassigned) [Example 78, 2-([2,2′-Bipyrimidin]-4-yl)-1-ethyl-5-fluoro-6-methoxyisoindoline] — 8.2-fold higher, 98 nM
- CCC1c2cc(F)c(OC)cc2CN1c1cnc(-c2ncccn2)nc1 (single isomer, unassigned) [Example 89, 2-([2,2′-Bipyrimidin]-5-yl)-1-ethyl-6-fluoro-5-methoxyisoindoline] — 1.5-fold lower, 8 nM
- CCC1c2cc(F)c(OC)cc2CCN1c1cnc(-c2ncccn2)nc1 (single isomer, unassigned) [Example 133, 2-(2,2′-Bipyrimidin-5-yl)-1-ethyl-7-fluoro-6-methoxy-1,2,3,4-tetrahydroisoquinoline] — 4-fold lower, 3 nM
- CCC1c2cc(F)c(OC)cc2CCN1c1ccnc(-c2ncccn2)n1 (single isomer, unassigned) [Example 129, 2-(2,2′-Bipyrimidin-4-yl)-1-ethyl-7-fluoro-6-methoxy-1,2,3,4-tetrahydroisoquinoline] — within 1.5-fold, 15 nM
- CCC1c2ccc(F)c(F)c2CCN1c1cnc(-c2ncccn2)nc1 (single isomer, unassigned) [Example 34, 1-Ethyl-5,6-difluoro-2-(2-pyrimidin-2-ylpyrimidin-5-yl)-3,4-dihydro-1H-isoquinoline] — 13-fold higher, 160 nM
- CCC1c2cc(OC)c(F)c(F)c2CCN1c1cnc(-c2ncccn2)nc1 (single isomer, unassigned) [Example 30, 1-Ethyl-5,6-difluoro-7-methoxy-2-(2-pyrimidin-2-ylpyrimidin-5-yl)-3,4-dihydro-1H-isoquinoline] — 11-fold higher, 130 nM
- CCC1c2c(OC)ccc(F)c2CCN1c1ccnc(-c2ncccn2)n1 (single isomer, unassigned) [Example 43, 1-Ethyl-5-fluoro-8-methoxy-2-(2-pyrimidin-2-ylpyrimidin-4-yl)-3,4-dihydro-1H-isoquinoline] — 5-fold higher, 60 nM
- CCC1c2cc(F)c(OC)cc2CN1c1nc(-c2ncccn2)ncc1-c1ccccc1 (single isomer, unassigned) [Example 66, 1-Ethyl-6-fluoro-5-methoxy-2-(5-phenyl-[2,2′-bipyrimidin]-4-yl)isoindoline] — 83-fold higher, 1000 nM
- CCC1c2cc(F)c(OC)cc2CN1c1nc(-c2ncccn2)ncc1OC (single isomer, unassigned) [Example 74, 1-Ethyl-6-fluoro-5-methoxy-2-(5-methoxy-[2,2′-bipyrimidin]-4-yl)isoindoline] — 1.5-fold lower, 8 nM
